Assays:
[1] = system: DU145; test: SRB cytotoxicity on DU145 cells; assay type: cell-based, human; conditions: DU145 cells (no AR), 144 h exposure
Description: (§1) Finally, compounds were also tested on HepG2 cells, originally isolated from a primary hepatoblastoma of a child, purchased from ATCC.
(§2) Sulforhodamine B (SRB) assay was used according to the method by Skehan et al. (JNCI, 1990). Briefly, cells were collected by trypsinization, counted and plated at a density of 5,000 cells/well in 96-well flat-bottomed microtiter plates (100 μl of cell suspension/well). In the chemosensitivity assay, experiments were run in octuplicate, and each experiment was repeated three times. The optical density (OD) of cells was determined at a wavelength of 490 nm by a colorimetric plate reader.
(§3) Growth inhibition and cytocidal effect of drugs were calculated according to the formula reported by Monks et al. (JNCI, 1991): [(ODtreated−ODzero)/(ODcontrol−ODzero)]×100%, when ODtreated is > to ODzero. If ODtreated is above ODzero, treatment has induced a cytostatic effect, whereas if ODtreated is below ODzero, cell killing has occurred. The ODzero depicts the cell number at the moment of drug addition, the ODcontrol reflects the cell number in untreated wells and the ODtreated reflects the cell number in treated wells on the day of the assay. TUNEL Assay
(§4) The authors tested the antitumour activity of the compounds also on PC-3 and DU145 cancer cell lines, representative of hormone-refractory prostate cancer due to AR receptor absence.

[2] = system: LNCaP cells; test: Sulforhodamine B (SRB) in vitro chemosensitivity assay on LNCaP cells; assay type: cell-based; conditions: for GI50 / LC50: Homo sapiens, LNCaP, 144 h; for GI50: read-out: Growth inhibition (GI50), LNCaP cells, 144 h exposure; for LC50: read-out: cytocidal effects by 50% (LC50), LNCaP cells, 144 h exposure, n.r. = not reached; for cytocidal (cell killing) activity: LNCaP cells, 144 h exposure
Description: as §2, §3
The authors examined the antitumour activity of the compounds for which the synthesis is described above, in the hormone-sensitive prostate cancer cell line LNCaP. (R)-Bicalutamide and the novel compounds were tested at the increasing concentrations of […]. The highest dose used was chosen on the basis of the clinically achievable peak plasma concentration reported in the literature for bicalutamide (Cockshott I D. Clin Pharmacokinet. 2004; 43 (13) 855-78).
After 144-hr exposure time, the cytotoxic effect of the molecules was calculated according to the method of Monks et al. (Monks A, et al., J. Nat. Cancer Inst. 1991; 83: 757-66).

[3] = system: PC-3; test: SRB cytotoxicity on PC-3 cells; assay type: cell-based, human; conditions: PC-3 cells (no AR), 144 h exposure
Description: as §1, §2, §3, §4

[4] = system: LNCaP-AR cells; test: TUNEL assay of apoptotic cells in LNCaP-AR; assay type: cell-based, human; conditions: 20.0 μM; for Apoptotic cells (%): LNCaP-AR, 144-h exposure, TUNEL
[5] = system: LNCaP cells; test: TUNEL assay of apoptotic cells in LNCaP; assay type: cell-based, human; conditions: 144-h exposure, 20.0 μM
Description: Cells were fixed in 1% paraformaldehyde in PBS on ice for 15 min, suspended in ice cold ethanol (70%) and stored overnight at −20° C. Cells were then washed twice in PBS and resuspended in PBS containing 0.1% Triton X-100 for 5 min at 4° C. Thereafter, samples were incubated in 50 μl of solution containing TdT and FITC-conjugated dUTP deoxynucleotides 1:1 (Roche Diagnostic GmbH, Mannheim, Germany) in a humidified atmosphere for 90 min at 37° C. in the dark, washed in PBS, counterstained with propidium iodide (2.5 μg/ml, MP Biomedicals, Verona, Italy) and RNAse (10 Kunits/ml, Sigma Aldrich, Milan, Italy) for 30 min at 4° C. in the dark and analyzed by flow cytometry.
After the end of drug exposures, medium was removed and cells were detached from the flasks by trypsin treatment, washed twice with PBS and stained according to the different methods specified below. Flow cytometric analysis was performed using a FACS Canto flow cytometer (Becton Dickinson, San Diego, Calif.). Data acquisition and analysis were performed using FACSDiva software (Becton Dickinson). Samples were run in triplicate and 10,000 events were collected for each replica. Data were the average of three experiments, with errors under 5%.
The cells, before TUNEL assay, were continuously exposed to the anti-androgen compounds for 144 hours at the concentration of 20.0 μM.

[6] = system: HepG2 cells; test: Cytotoxic activity on hepatoblastoma cell line HepG2; assay type: cell-based, human; conditions: up to highest concentration tested
Description: as §1, §2, §3
(§5) The authors evaluated in vitro the potential hepato-toxicity of some of the novel compounds on HepG2 cell line, a human hepatoblastoma cell line that retains the specialized function of normal hepatocytes [Knowles B B, et al., Science 1980, 209:497-499; Aden D P, et al., Nature, 1979, 282:615-616].

[7] = system: normal stem cells derived from human peripheral blood stem cells; test: Colony-forming cell assay (GM-CFU); assay type: cell-based; conditions: highest concentration tested, 14 days incubation
Description: The colony-forming cell assay was used as previously described [Motta M R et al., Exp Hematol 1997; 25:1261-1269]. In brief, for each molecule, 5×10^4 cells were plated in duplicate in a complete culture medium (MethoCult H4434, StemCell Technologies, Vancouver, Canada) containing different concentrations (0.2, 2, and 20 μmol/l) of the compound. After 14 days of incubation in a humidified atmosphere of 5% CO2 at the temperature of 37° C., granulocyte macrophage colony-forming unit (GM-CFU) aggregates of more than 50 cells were counted. Control cells were incubated under the same conditions but in drug-free medium.
The authors also evaluated the potential toxicity of some of the novel compounds in normal cells as the ability of the drugs to inhibit clonogenic growth of normal stem cells derived from human peripheral blood stem cells (FIG. 37). The exposure of hematopoietic precursor to the compounds, caused low ((S)-37) or negligible (, (R)-22, (R)-23, (R)-10) toxicity at the highest concentration tested.

[8] = Cytotoxic activity on hepatoblastoma cell line HepG2; assay type: cell-based, human; conditions: human, HepG2 cells
Description: as §1, §2, §3, §5

Row | SMILES | cytotoxic properties compared to effects on LNCaP and LNCaP-AR cells [1] | GI50 [2] | LC50 [2] | cytocidal (cell killing) activity [2] | cytotoxic properties compared to effects on LNCaP and LNCaP-AR cells [3] | apoptosis induction in the LNCaP derivative cell line versus LNCaP ([4]; 144 h) | Apoptotic cells (%) [4] | Apoptotic cells (%) [5] | potential hepato-toxicity [6] | toxicity: inhibition of clonogenic growth of hematopoietic precursors [7] | GI50 [8] | LC50 (concentration killing 50% of cells) [8]
1 | CS(=O)(=O)N[C@@](Cc1ccccc1)(CS(=O)(=O)c1ccc(F)cc1)C(=O)Nc1ccc(C#N)c(C(F)(F)F)c1 [(R)-10, (R)-2-benzyl-N-(4-cyano-3-(trifluoromethyl)phenyl)-3-(4-fluorophenylsulfonyl)-2-(methylsulfonamido)propanamide] | significant reduction in their cytotoxic proprieties | 7.4 µM | 17.7 µM | cytocidal activity | significant reduction in their cytotoxic proprieties | more active | 42.7% | 35.5% | negligible toxicity | negligible | – | –
2 | N#Cc1ccc(N2C(=O)[C@](Cc3ccc(F)cc3)(c3ccccc3)NC2=S)cc1C(F)(F)F [(S)-37] | significant reduction in their cytotoxic proprieties | 5.8 µM | 16.8 µM | cytocidal activity | significant reduction in their cytotoxic proprieties | – | 89.5% | 93.4% | significant toxicity | low | 7.4 µM | 17.7 µM

— US8859599B2, “Androgen receptor modulating compounds, preparation and uses thereof” (priority 2009, dated 2014)
